Consider 26 molecules from PubChem BioAssay AID330 (DTP/NCI, 2004).

The structures appear in SMILES notation. Several values for one entry are separate records, joined by “and”; a condition that tells them apart may be missing. Equal entries are not always repeated. Toxic doses and inconclusive results are not listed.

For the experiment, the system named is P388 leukemia ip, CD2F1 mice, survival T/C. Kind of experiment: NCI In Vivo Anticancer Drug Screen. Data for tumor model P388 Leukemia (intraperitoneal) in CD2F1 (CDF1) mice. The following applies: endpoint: median survival time, higher = longer survival. An outline of the steps: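 Mice carrying the transplanted tumor received test compound or vehicle. Survival was recorded in each group, and the value is the treated-group measurement divided by that of the vehicle-treated control group.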

The mark [1] stands for this setting: dose: 50.0 mg/kg/injection, schedule: Q01DX009 (ip), vehicle: saline with Tween-80.
The mark [2] stands for this setting: dose: 100.0 mg/kg/injection, schedule: Q01DX009 (ip), vehicle: saline with Tween-80.
Where [3] appears, read: dose: 200.0 mg/kg/injection, schedule: Q01DX009 (ip), vehicle: saline with Tween-80.
Setting [4] is: dose: 60.0 mg/kg/injection, schedule: Q01DX005 (ip), vehicle: saline with Tween-80.
[5] abbreviates: dose: 120.0 mg/kg/injection, schedule: Q01DX005 (ip), vehicle: saline with Tween-80.
The mark [6] stands for this setting: dose: 60.0 mg/kg/injection, schedule: Q01DX005 (ip), vehicle: Klucel (hydroxypropylcellulose) (HPC).
Setting [7] is: dose: 120.0 mg/kg/injection, schedule: Q01DX005 (ip), vehicle: Klucel (hydroxypropylcellulose) (HPC).
The mark [8] stands for this setting: dose: 240.0 mg/kg/injection, schedule: Q01DX005 (ip), vehicle: Klucel (hydroxypropylcellulose) (HPC).
The mark [9] stands for this setting: dose: 50.0 mg/kg/injection, schedule: Q01DX009 (ip), vehicle: Klucel (hydroxypropylcellulose) (HPC).
Where [10] appears, read: dose: 100.0 mg/kg/injection, schedule: Q01DX009 (ip), vehicle: Klucel (hydroxypropylcellulose) (HPC).
The mark [11] stands for this setting: dose: 60.0 mg/kg/injection, schedule: Q01DX005 (ip), vehicle: saline.
[12] abbreviates: dose: 120.0 mg/kg/injection, schedule: Q01DX005 (ip), vehicle: saline.
Where [13] appears, read: dose: 240.0 mg/kg/injection, schedule: Q01DX005 (ip), vehicle: saline.
Setting [14] is: dose: 100.0 mg/kg/injection, schedule: Q01DX009 (ip), vehicle: saline.
The mark [15] stands for this setting: dose: 200.0 mg/kg/injection, schedule: Q01DX009 (ip), vehicle: saline.

For `CN(C)c1ccc(/C=C/c2ccnc3c(O)ccc(O)c23)cc1`, the T/C was 91 % of control (dose: 12.5 mg/kg/injection, schedule: Q01DX009 (ip), vehicle: saline with Tween-80); 94 % of control (dose: 25.0 mg/kg/injection, schedule: Q01DX009 (ip), vehicle: saline with Tween-80); 92 % of control under setting [1].
As for `CCC(=O)O[C@H]1CC[C@H]2[C@@H]3C[C@H](F)C4=CC(=O)CC[C@]4(C)[C@H]3CC[C@]12C`, the T/C is 100 % of control under setting [1], 100 % of control under setting [2] and 100 % of control under setting [3].
For the molecule `COc1ccc(C(c2c(O)cc(C)[nH]c2=O)c2c(O)cc(C)[nH]c2=O)cc1F`, the T/C is, setting by setting: under setting [1], 97 % of control; under setting [2], 96 % of control; under setting [3], 95 % of control.
As for `COC(=O)C(O)(/C(=N\O)c1ccccc1)c1ccccc1` (stereo unspecified), the T/C under setting [4] is 97 % of control and the T/C under setting [5] was 90 % of control.
Regarding `COC(=O)c1nc(N)nc(C(=O)OC)c1C(=O)c1ccncc1`, the T/C by setting is: under setting [6], 92 % of control; under setting [7], 96 % of control.
With `N#CN=CN1CCC(Cc2ccccc2)CC1`, the T/C reads like this: under setting [1], 101 % of control; under setting [2], 101 % of control.
For the molecule `NCc1nnn(Cc2ccccc2)c1N`, the T/C reads like this: under setting [1], 90 % of control; under setting [2], 92 % of control; under setting [3], 92 % of control.
On to `CCCCC[P+](c1ccccc1)(c1ccccc1)c1ccccc1`, for which the T/C is 105 % of control (dose: 1.56 mg/kg/injection, schedule: Q01DX009 (ip), vehicle: Klucel (hydroxypropylcellulose) (HPC)); 111 % of control (dose: 3.12 mg/kg/injection, schedule: Q01DX009 (ip), vehicle: Klucel (hydroxypropylcellulose) (HPC)); 121 % of control (dose: 3.13 mg/kg/injection, schedule: Q01DX009 (ip), vehicle: Klucel (hydroxypropylcellulose) (HPC)); 121 % of control (dose: 6.25 mg/kg/injection, schedule: Q01DX009 (ip), vehicle: Klucel (hydroxypropylcellulose) (HPC)); 93 % of control (dose: 12.5 mg/kg/injection, schedule: Q01DX009 (ip), vehicle: Klucel (hydroxypropylcellulose) (HPC)); 100 % of control (dose: 25.0 mg/kg/injection, schedule: Q01DX009 (ip), vehicle: Klucel (hydroxypropylcellulose) (HPC)).
With `c1ccc2c(c1)nnc1ccccc12`, the T/C was 102 % of control (dose: 50.0 mg/kg/injection, schedule: Q01DX005 (ip), vehicle: Klucel + Tween-80); 96 % of control (dose: 100.0 mg/kg/injection, schedule: Q01DX005 (ip), vehicle: Klucel + Tween-80); 102 % of control (dose: 200.0 mg/kg/injection, schedule: Q01DX005 (ip), vehicle: Klucel + Tween-80).
Turning to `O=C(Nc1cccc2ccccc12)N1c2ccccc2SC12CCCC2`, the T/C runs as follows: (dose: 1.56 mg/kg/injection, schedule: Q01DX009 (ip), vehicle: saline with Tween-80) 104 % of control; (dose: 3.13 mg/kg/injection, schedule: Q01DX009 (ip), vehicle: saline with Tween-80) 100 % of control; (dose: 6.25 mg/kg/injection, schedule: Q01DX009 (ip), vehicle: saline with Tween-80) 99 % of control and 94 % of control.
On to `Cc1ccc(C)c(NC(=O)C(=O)C(C#N)c2c(Cl)cccc2Cl)c1` (stereo unspecified), for which the T/C is 96 % of control under setting [4]; 102 % of control under setting [5]; 99 % of control (dose: 240.0 mg/kg/injection, schedule: Q01DX005 (ip), vehicle: saline with Tween-80).
For the molecule `COc1ccc(C(=O)CCC2(C)OCCO2)cc1OC`, the T/C runs as follows: under setting [6], 101 % of control; under setting [7], 108 % of control; under setting [8], 106 % of control.
As for `FC(F)(F)c1ccc(Cl)c(N=Cc2ccc(C=Nc3cc(C(F)(F)F)ccc3Cl)cc2)c1`, the T/C is 91 % of control under setting [9] and 98 % of control under setting [10].
As to `C/C=C(/C)C(=O)OC1C[C@@]2(C)OC2C(OC(C)=O)[C@@]2(C)CC[C@@](O)(C(C)C)C12` (stereo partly specified), the T/C runs as follows: (dose: 35.0 mg/kg/injection, schedule: Q01DX005 (ip), vehicle: saline with Tween-80) 101 % of control; (dose: 70.0 mg/kg/injection, schedule: Q01DX005 (ip), vehicle: saline with Tween-80) 96 % of control; (dose: 140.0 mg/kg/injection, schedule: Q01DX005 (ip), vehicle: saline with Tween-80) 90 % of control.
On to `CN1C(=O)/C(=C\c2ccccc2)N=C(c2ccccc2)c2cc(Cl)ccc21`, for which the T/C is 110 % of control (dose: 25.0 mg/kg/injection, schedule: Q01DX005 (ip), vehicle: saline with Tween-80); 96 % of control (dose: 50.0 mg/kg/injection, schedule: Q01DX005 (ip), vehicle: saline with Tween-80); 91 % of control (dose: 100.0 mg/kg/injection, schedule: Q01DX005 (ip), vehicle: saline with Tween-80).
As to `O=C1C2C3CCC(O3)C2C(=O)N1CCO` (stereo unspecified), the T/C was 96 % of control under setting [11], 89 % of control under setting [12] and 98 % of control under setting [13].
Take `COc1ccc(NC(=O)N2CCOCC2)cc1`: the T/C is 92 % of control (dose: 50.0 mg/kg/injection, schedule: Q01DX009 (ip), vehicle: saline); 92 % of control under setting [14]; 88 % of control under setting [15].
Take `CC(=NCCCCN=C(C)c1cc(C)cc(Br)c1O)c1cc(C)cc(Br)c1O`: the T/C was 100 % of control (dose: 25.0 mg/kg/injection, schedule: Q01DX005 (ip), vehicle: Klucel (hydroxypropylcellulose) (HPC)); 96 % of control (dose: 50.0 mg/kg/injection, schedule: Q01DX005 (ip), vehicle: Klucel (hydroxypropylcellulose) (HPC)); 95 % of control (dose: 100.0 mg/kg/injection, schedule: Q01DX005 (ip), vehicle: Klucel (hydroxypropylcellulose) (HPC)); 98 % of control (dose: 200.0 mg/kg/injection, schedule: Q01DX005 (ip), vehicle: Klucel (hydroxypropylcellulose) (HPC)).
Regarding `CSc1cccc([N+](=O)[O-])c1`, the T/C was 95 % of control under setting [14] and 87 % of control under setting [15].
For `CCN(CC)CC(C)(C)C(=O)/C=C/c1ccccc1`, the T/C is, setting by setting: under setting [11], 103 % of control; under setting [12], 102 % of control; under setting [13], 115 % of control.
Regarding `CCOC(=O)/C(C#N)=C1/CCCN1C`, the T/C is, setting by setting: (dose: 100.0 mg/kg/injection, schedule: Q04DX003 (ip), vehicle: Klucel (hydroxypropylcellulose) (HPC)) 107 % of control; (dose: 200.0 mg/kg/injection, schedule: Q04DX003 (ip), vehicle: Klucel (hydroxypropylcellulose) (HPC)) 109 % of control.
For the molecule `CCOc1nc(N)c(C(=O)c2sc(OCC)nc2N)s1`, the T/C is 107 % of control (dose: 100.0 mg/kg/injection, schedule: Q01DX001 (ip), vehicle: saline with Tween-80); 99 % of control (dose: 200.0 mg/kg/injection, schedule: Q01DX001 (ip), vehicle: saline with Tween-80); 92 % of control (dose: 400.0 mg/kg/injection, schedule: Q01DX001 (ip), vehicle: saline with Tween-80).
Consider `COc1ccc(C2=CC(c3ccc(OC)cc3)(c3ccc(C(F)(F)F)cc3)C=C(c3ccc(OC)cc3)S2)cc1`, for which the T/C by setting is: under setting [9], 97 % of control; under setting [10], 93 % of control; (dose: 200.0 mg/kg/injection, schedule: Q01DX009 (ip), vehicle: Klucel (hydroxypropylcellulose) (HPC)) 90 % of control.
Regarding `CC(Cl)C(=O)NN=C(c1ccccc1)c1ccccc1` (stereo unspecified), the T/C was 94 % of control (dose: 42.0 mg/kg/injection, schedule: Q01DX009 (ip), vehicle: saline); 90 % of control (dose: 84.0 mg/kg/injection, schedule: Q01DX009 (ip), vehicle: saline); 105 % of control (dose: 168.0 mg/kg/injection, schedule: Q01DX009 (ip), vehicle: saline).
Turning to `O=c1[nH]c2cc(Cl)ccc2nc1/C=C(\O)c1cccc([N+](=O)[O-])c1`, the T/C under setting [6] is 102 % of control, the T/C under setting [7] is 97 % of control and the T/C under setting [8] is 101 % of control.
As to `COc1ccc2c(c1)[C@]1(C)CCN(C)[C@@H]1N2C`, the T/C is 105 % of control (dose: 12.5 mg/kg/injection, schedule: Q01DX005 (ip), vehicle: saline); 98 % of control (dose: 25.0 mg/kg/injection, schedule: Q01DX005 (ip), vehicle: saline); 105 % of control (dose: 50.0 mg/kg/injection, schedule: Q01DX005 (ip), vehicle: saline).
